{
  "source": "patent US20260284078A1",
  "about": "“IMMUNOS[…] AND METHODS THEREOF” (priority 2023, published 2026)",
  "key": {"[1]": {"assay": "Example 5 peripheral drug exposures in blood and plasma", "assay_type": "in vivo, cynomolgus macaques", "details": "oral once per day (Dex 0.5 mg/kg, Tac 1 mg/kg, Pred 3 mg/kg); day 21, 4 hours post-dosing", "text": "FIG. 9. Exemplary peripheral drug exposures in blood and plasma. […] The X axis of the graph denotes immunosuppression agent (dexamethasone, tacrolimus, or prednisolone); the Y axis of the graph depicts ng/ml of the immunosuppression agent as detected in blood for dexamethasone and prednisolone or in plasma for tacrolimus. Each circle represents data collected from one animal."}, "cynomolgus macaques [2]": {"system": "cynomolgus macaques", "assay": "Example 5 histopathological lesions in examined animals (Table 1)", "assay_type": "in vivo", "details": "rAAV 5×10^13 vg/kg IV + regimen, day 22 necropsy", "text": "FIGS. 10A-10C. […] Columns represent average value for each treatment group. […] Treatment group is denoted at left. […] Magnification is indicated at top. […] Treatment groups of animals are indicated at top."}, "cynomolgus macaques [3]": {"system": "cynomolgus macaques", "assay": "Example 5 liver enzymes and total bilirubin in blood (Table 2)", "details": "rAAV 5×10^13 vg/kg IV plus regimen", "from_the_text": "Blood samples were collected from animals on days-7, 4, 8, 15, and 22 (wherein 0=day of rAAV administration) and subsequently analyzed for levels of certain liver enzymes and total bilirubin. […] (D) Level of total bilirubin (TBIL) was quantified. The X axis depicts day of study (wherein 0=day of rAAV administration); the Y axis depicts milligrams (mg) per deciliter (dL) of total bilirubin. Each graphed line corresponds to data collected from one animal. Legend at right identifies treatment group.\nReduction in liver toxicity upon treatment with rAAV by tested immunosuppression regimens was investigated through measurement of levels of liver enzymes and analysis of liver lesions at necropsy."}},
  "data": [
    {"smiles": "C[C@@H]1C[C@H]2[C@@H]3CCC4=CC(=O)C=C[C@]4(C)[C@@]3(F)[C@@H](O)C[C@]2(C)[C@@]1(O)C(=O)CO", "note": "[Dex, dexamethasone]", "values": [
      {"measurement": "peripheral drug exposure", "setting": "[1]", "result": "achieved targeted ranges of peripheral drug exposure"}
    ]},
    {"smiles": "C[C@]12C=CC(=O)C=C1CC[C@@H]1[C@@H]2[C@@H](O)C[C@@]2(C)[C@H]1CC[C@]2(O)C(=O)CO", "note": "[Pred, prednisolone]", "values": [
      {"measurement": "peripheral drug exposure", "setting": "[1]", "result": "achieved targeted ranges of peripheral drug exposure"},
      {"measurement": "Dorsal root ganglia, cervical: Infiltrate, mononuclear cell (animals affected, total)", "setting": "cynomolgus macaques [2]; 3 examined per group", "result": "(0)"},
      {"measurement": "Dorsal root ganglia, cervical: Infiltrate, mononuclear cell, Minimal (animals)", "setting": "cynomolgus macaques [2]; 3 examined per group", "result": 0},
      {"measurement": "Dorsal root ganglia, lumbar: Degeneration/necrosis, neuron (animals affected, total)", "setting": "cynomolgus macaques [2]; 3 examined per group", "result": "(3)"},
      {"measurement": "Dorsal root ganglia, lumbar: Degeneration/necrosis, neuron, Minimal (animals)", "setting": "cynomolgus macaques [2]; 3 examined per group", "result": 3},
      {"measurement": "Dorsal root ganglia, lumbar: Infiltrate, mononuclear cell (animals affected, total)", "setting": "cynomolgus macaques [2]; 3 examined per group", "result": "(3)"},
      {"measurement": "Dorsal root ganglia, lumbar: Infiltrate, mononuclear cell, Minimal (animals)", "setting": "cynomolgus macaques [2]; 3 examined per group", "result": 3},
      {"measurement": "Dorsal root ganglia, sacral: Degeneration/necrosis, neuron (animals affected, total)", "setting": "cynomolgus macaques [2]; 3 examined per group", "result": "(1)"},
      {"measurement": "Dorsal root ganglia, sacral: Degeneration/necrosis, neuron, Minimal (animals)", "setting": "cynomolgus macaques [2]; 3 examined per group", "result": 1},
      {"measurement": "Dorsal root ganglia, sacral: Infiltrate, mononuclear cell (animals affected, total)", "setting": "cynomolgus macaques [2]; 3 examined per group", "result": "(1)"},
      {"measurement": "Dorsal root ganglia, sacral: Infiltrate, mononuclear cell, Mild (animals)", "setting": "cynomolgus macaques [2]; 3 examined per group", "result": 1},
      {"measurement": "Dorsal root ganglia, sacral: Infiltrate, mononuclear cell, Minimal (animals)", "setting": "cynomolgus macaques [2]; 3 examined per group", "result": 0},
      {"measurement": "Dorsal root ganglia, thoracic: Degeneration/necrosis, neuron (animals affected, total)", "setting": "cynomolgus macaques [2]; 3 examined per group", "result": "(1)"},
      {"measurement": "Dorsal root ganglia, thoracic: Degeneration/necrosis, neuron, Minimal (animals)", "setting": "cynomolgus macaques [2]; 3 examined per group", "result": 1},
      {"measurement": "Dorsal root ganglia, thoracic: Infiltrate, mononuclear cell (animals affected, total)", "setting": "cynomolgus macaques [2]; 3 examined per group", "result": "(2)"},
      {"measurement": "Dorsal root ganglia, thoracic: Infiltrate, mononuclear cell, Minimal (animals)", "setting": "cynomolgus macaques [2]; 3 examined per group", "result": 2},
      {"measurement": "Heart: Degeneration, myocardium (animals affected, total)", "setting": "cynomolgus macaques [2]; 3 examined per group", "result": "(1)"},
      {"measurement": "Heart: Degeneration, myocardium, Minimal (animals)", "setting": "cynomolgus macaques [2]; 3 examined per group", "result": 1},
      {"measurement": "Heart: Infiltrate, mononuclear cell, adipose (animals affected, total)", "setting": "cynomolgus macaques [2]; 3 examined per group", "result": "(3)"},
      {"measurement": "Heart: Infiltrate, mononuclear cell, adipose, Minimal (animals)", "setting": "cynomolgus macaques [2]; 3 examined per group", "result": 3},
      {"measurement": "Heart: Infiltrate, mononuclear cell, myocardium (animals affected, total)", "setting": "cynomolgus macaques [2]; 3 examined per group", "result": "(2)"},
      {"measurement": "Heart: Infiltrate, mononuclear cell, myocardium, Mild (animals)", "setting": "cynomolgus macaques [2]; 3 examined per group", "result": 1},
      {"measurement": "Heart: Infiltrate, mononuclear cell, myocardium, Minimal (animals)", "setting": "cynomolgus macaques [2]; 3 examined per group", "result": 1},
      {"measurement": "Sciatic nerve: Degeneration, nerve fiber (animals affected, total)", "setting": "cynomolgus macaques [2]; 3 examined per group", "result": "(1)"},
      {"measurement": "Sciatic nerve: Degeneration, nerve fiber, Minimal (animals)", "setting": "cynomolgus macaques [2]; 3 examined per group", "result": 1},
      {"measurement": "Trigeminal ganglion: Degeneration/necrosis, neuron (animals affected, total)", "setting": "cynomolgus macaques [2]; 3 examined per group", "result": "(2)"},
      {"measurement": "Trigeminal ganglion: Degeneration/necrosis, neuron, Minimal (animals)", "setting": "cynomolgus macaques [2]; 3 examined per group", "result": 2},
      {"measurement": "Trigeminal ganglion: Infiltrate, mononuclear cell (animals affected, total)", "setting": "cynomolgus macaques [2]; 3 examined per group", "result": "(2)"},
      {"measurement": "Trigeminal ganglion: Infiltrate, mononuclear cell, Minimal (animals)", "setting": "cynomolgus macaques [2]; 3 examined per group", "result": 2},
      {"measurement": "Sympathetic ganglia, thoracic: Infiltrate, mononuclear cell (animals affected, total)", "setting": "cynomolgus macaques [2]; examined: Dex/Tac 1, Pred 3", "result": "(2)"},
      {"measurement": "Sympathetic ganglia, thoracic: Infiltrate, mononuclear cell, Minimal (animals)", "setting": "cynomolgus macaques [2]; examined: Dex/Tac 1, Pred 3", "result": 2},
      {"measurement": "Sympathetic ganglia, cervical: Infiltrate, mononuclear cell (animals affected, total)", "setting": "cynomolgus macaques [2]; examined: Dex/Tac 3, Pred 2", "result": "(1)"},
      {"measurement": "Sympathetic ganglia, cervical: Infiltrate, mononuclear cell, Minimal (animals)", "setting": "cynomolgus macaques [2]; examined: Dex/Tac 3, Pred 2", "result": 1},
      {"measurement": "total bilirubin levels", "setting": "cynomolgus macaques [3]", "result": "notable increases"}
    ]},
    {"smiles": "C=CC[C@@H]1/C=C(\\C)C[C@H](C)C[C@H](OC)[C@H]2O[C@@](O)(C(=O)C(=O)N3CCCC[C@H]3C(=O)O[C@H](/C(C)=C/[C@@H]3CC[C@@H](O)[C@H](OC)C3)[C@H](C)[C@@H](O)CC1=O)[C@H](C)C[C@@H]2OC", "note": "[Tac, tacrolimus]", "values": [
      {"measurement": "peripheral drug exposure", "setting": "[1]", "result": "achieved targeted ranges of peripheral drug exposure"}
    ]}
  ]
}
